Earlier results on two compounds are cited in patent US20220175673A1, “SURGICAL DEVICE” (Saint Anthony Biomedical, LLC, priority 2017, published 2022).

Series [1] has as its system Epidermophyton occosum, Microsporum gypseum, M canis, Trichophyton mentagrophytes.
Series [2] relates to Enterococcus, including E. faecalis and E. faecium. The conditions noted are these: vancomycin-susceptible and vancomycin-resistant strains.
Series [3] deals with CMV, HIV, HSV-1, HSV-2, influenza virus, parainfluenza virus, variola virus. The conditions noted are these: viruses with a lipid component in outer coat or an outer envelope.
Series [4] has as its system Staphylococcus aureus, S. epidermidis, S. haemolyticus, S. hominis, S. simulans. Particulars: both oxacillin-resistant and oxacillin-susceptible staphylococci.
Series [5] relates to Streptococcus mutans, S. pyogenes, S. salivarius, S. sanguis. Particulars: Gram-positive aerobic bacteria.
Series [6] relates to Candida albicans, C. dubliniensis, C. glabrata, C. gullermondii, C. pseudotropicalis, C. krusei, C. lusitaniae, C. tropicalis.
Another series deals with Veillonella. Particulars: compared with other anaerobic bacteria.
For series [7], the system named is MDR isolates (MRSA, E. faecium, K pneumoniae, E. aerogenes, E. coli and A. baumani). The conditions noted are these: 0.05% CHG, 1-minute exposure.

On to `[H]/N=C(\N/C(=N/[H])NCCCCCCNC(=N)NC(=N)Nc1ccc(Cl)cc1)Nc1ccc(Cl)cc1` [Chlorhexidine, chlorhexidine], for which the activity result was “some activity” in series [1]; “active” in series [2]; “active” in [4]; “highly active” in series [5]; “some activity” in [6]; “less active” in the series on Veillonella. Further, the “effect on wound healing” value in the series on wound healing is listed as “inhibitory effect”. In series [3], the antiviral activity entry is “appears to have antiviral activity”. For the same compound, the effect on keratinocytes entry in the series on keratinocytes is “cytotoxic effect”.

Consider `N=C(NCCCCCCNC(=N)NC(=N)Nc1ccc(Cl)cc1)NC(=N)Nc1ccc(Cl)cc1.O=C(O)[C@H](O)[C@@H](O)[C@H](O)[C@H](O)CO.O=C(O)[C@H](O)[C@@H](O)[C@H](O)[C@H](O)CO` [CHG, chlorhexidine gluconate], for which the “log-reduction in MDR isolates” value in series [7] is listed as “greater than or equal to 99.99%”.
